Reference: BindingDB's records for doi:10.7270/Q20K275C (The Scripps Research Institute Molecular Screening Center, 2012)

Biological target: Arf-GAP with SH3 domain, ANK repeat and PH domain-containing protein 1 (Homo sapiens, UniProt Q9ULH1)
Sequence (Q9ULH1 whole entry, the tested form may be a part): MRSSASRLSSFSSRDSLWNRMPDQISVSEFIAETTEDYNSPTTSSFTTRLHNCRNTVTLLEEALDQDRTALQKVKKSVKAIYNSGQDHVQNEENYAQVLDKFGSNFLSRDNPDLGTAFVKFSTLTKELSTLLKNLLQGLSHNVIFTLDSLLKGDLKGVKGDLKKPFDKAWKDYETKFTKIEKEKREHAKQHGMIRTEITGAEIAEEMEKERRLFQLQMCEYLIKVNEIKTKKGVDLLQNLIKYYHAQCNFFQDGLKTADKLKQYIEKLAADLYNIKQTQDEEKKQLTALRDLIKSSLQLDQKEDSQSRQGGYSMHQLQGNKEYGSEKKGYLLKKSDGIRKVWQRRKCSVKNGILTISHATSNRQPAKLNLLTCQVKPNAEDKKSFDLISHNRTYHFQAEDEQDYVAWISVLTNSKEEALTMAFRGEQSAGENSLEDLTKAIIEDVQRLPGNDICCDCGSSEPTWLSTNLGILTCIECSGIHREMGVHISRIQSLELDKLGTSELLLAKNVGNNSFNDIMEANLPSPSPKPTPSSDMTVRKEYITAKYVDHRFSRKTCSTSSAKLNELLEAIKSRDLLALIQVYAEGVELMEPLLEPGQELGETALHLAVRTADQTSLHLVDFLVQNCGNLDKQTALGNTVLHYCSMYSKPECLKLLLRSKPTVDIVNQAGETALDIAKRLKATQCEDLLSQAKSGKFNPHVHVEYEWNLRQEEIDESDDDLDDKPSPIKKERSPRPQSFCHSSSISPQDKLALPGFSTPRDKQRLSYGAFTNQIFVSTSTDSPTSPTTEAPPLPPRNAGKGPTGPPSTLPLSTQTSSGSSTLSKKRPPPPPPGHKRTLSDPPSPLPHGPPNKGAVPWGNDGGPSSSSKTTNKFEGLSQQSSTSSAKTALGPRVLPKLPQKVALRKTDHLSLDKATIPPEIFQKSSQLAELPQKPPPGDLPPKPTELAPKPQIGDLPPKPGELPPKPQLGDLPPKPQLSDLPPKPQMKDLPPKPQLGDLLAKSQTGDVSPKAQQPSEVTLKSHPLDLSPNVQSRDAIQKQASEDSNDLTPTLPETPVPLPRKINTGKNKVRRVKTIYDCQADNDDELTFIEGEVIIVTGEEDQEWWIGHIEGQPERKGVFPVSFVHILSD

**Q.** How did the IC50 turn out when O=C(Nc1cccc(-c2csc(Nc3ccc(Cl)cc3)n2)c1)c1ccccc1 was run?
**A.** The IC50 was over 165 µM.
